Assay results from PMC4186430, “Modeling of age-dependent amyloid accumulation and γ-secretase inhibition of soluble and insoluble Aβ in a transgenic mouse model of amyloid deposition” (Pharmacology Research & Perspectives, 2013).
Marks after values point to notes of the source that are not given here.

What was measured:
[1] = Population pharmacokinetic modeling of MRK-560 plasma and brain exposure in mice; format: in vivo, C57BL/6, Tg2576 and Tg2576 wild-type littermate mice
Description: (§1) C57BL/6 female mice (Harlan Laboratories, Horst, The Netherlands), Tg2576 transgenic female mice (Taconics, Georgetown, NY), overexpressing human APP with the Swedish mutation (Hsiao et al. [1996]), and Tg2576 wild-type littermates were used in the experiments. The C57BL/6 and wild-type littermates were only used for pharmacokinetic PK sampling and analysis. The housing environment was humidity- and temperature-controlled with a constant 12-h light/dark cycle. The animals were kept in conventional housing (5–10 mice per cage) and had access to standard rodent chow and tap water ad libitum. The transgenic mice were aged at the local AstraZeneca (AZ) animal facilities. On the day of study, the mice were weighed. MRK-560 (synthesized in-house; AZ) or vehicle was administered by oral gavage. Three types of vehicles were used: (1) 1% MCC/NaCMC (Microcrystalline Cellulose/Sodiumcarboxymethyl Cellulose) +0.6% lipoid S100, (2) 20% HPβCD in 0.1 mol/L Meglumine, and (3) 40% HPβCD in 0.3 mol/L Meglumine. Observations of the animals’ health were made throughout all the experiments. Data from 23 MRK-560 studies were used in this analysis and details of all studies can be found in Table 1. For the AP analysis, data from vehicle and untreated Tg2576 mice from 48 additional (i.e., non-MRK-560) in-house studies were used. The additional dataset consisted of Aβ levels measured in Tg2576 mice of various ages, between 3.5 and 26 months at termination. Details of those data can be found in Appelkvist et al. ([2011]). In total, data from 71 preclinical studies were used.
Blood samples were collected by tail vein puncture in PK studies and occasionally in efficacy studies. At termination blood was withdrawn from anesthetized mice by heart puncture into prechilled microtainer Ethylenediaminetetraacetic acid tubes. Blood samples were immediately put on ice and centrifuged for 10 min at ∼3000g at +4°C within 20 min from sampling. Plasma was transferred to prechilled polypropylene tubes. The tubes were immediately frozen on dry ice and stored at −70°C until analysis.
Plasma samples and standards were precipitated with acetonitrile containing internal standard. After centrifugation, supernatant was transferred to a new 96-well plate, diluted with mobile phase, and injected on the LC/MS/MS system (Waters Corporation, Sollentuna, Sweden) (Bueters et al. [2011]). For the determination of the compound concentration in the brain, frozen mouse brains were weighed, and an ice-cold Ringer solution (two volumes per weight) was added. The brains were sonicated using a Multi-element probe SONICS VCX 500 (Newtown, CT). To 50 μL homogenized tissue 150 μL ice-cold acetonitrile containing an internal standard was added in a precipitation plate (96-well PP-plate; Waters, Milford, MA). After mixing and centrifugation (4°C, 4000 rpm, 20 min), supernatant was transferred to an analysis plate (PP-plate, Waters) and analyzed by LC/MS/MS (Borgegård et al. [2011]). As the brains were not perfused before exposure analysis, a volume of 1.3% of blood in the brain and the concentration of compound in plasma were used to calculate the brain concentration (Richard [1968]; Park and Sinko [2005]).
In the pharmacokinetic analysis, one- and two-compartmental first-order models were evaluated to fit the MRK-560 concentration–time profiles in plasma and brain. Separate absorption rate constants were estimated for oral and subcutaneous route of administration. A dose-dependent bioavailability was assessed and was modeled using the function shown in equation (1): [drawing 1] (1)
An instantaneous distribution of the unbound compound between plasma and brain was assumed. The brain exposure was modeled using equation (2): [drawing 2] (2) where CP was the plasma concentration, θ4 was the brain:plasma concentration ratio, and fu,pl and fu,br were the plasma and brain unbound fraction, respectively. […]

insoluble Aβ40 = assay: Insoluble (FA) brain Aβ40 levels in Tg2576 mice after MRK-560, ELISA; format: in vivo, Tg2576 transgenic mice
Description: as §1
After blood sampling, mice were sacrificed by decapitation followed by brain samples collection. Cerebellum and olfactory bulbs were removed and the forebrain was divided into left and right hemispheres, weighed, and snap frozen.
Left hemisphere of the cerebrum was sequentially extracted by diethylamine (DEA) followed by formic acid (FA) to obtain soluble and insoluble fractions of Aβ species, respectively. In short, brain tissue was sonicated in 1:18 (w/v) 0.2% DEA and 50 mmol/L NaCl, pH 11.6. After centrifugation (133,000g, 4°C, 1 h), the supernatant (soluble Aβ) was recovered, neutralized to a pH of 8.0 using 2 mol/L Tris-HCl, and immediately frozen to -70°C. The remaining pellet was sonicated in 1:18 (w/v) 70% FA. Homogenates were centrifuged at +4°C for 1 h at 133,000g. Recovered supernatants (insoluble Aβ) were neutralized to pH 7.5 with 1 mol/L Tris at 1:20 (w/v) dilutions, frozen on dry ice, and stored at −70°C until analysis.
Amyloid beta (Aβ40) and Aβ42 concentrations were measured in plasma, in soluble (DEA), and insoluble (FA) brain fractions using commercial sandwich ELISA kits (KHB3482 from Invitrogen, Carlsbad, CA, and RUO80177 from Innogenetics, Gent, Belgium). To compensate for matrix effects, plasma or brain homogenates from non-transgenic mice were used for preparation of standard curves. The lower and higher limits of quantification (LLOQ and HLOQ) were determined for each immunoassay plate based on the lowest and highest standard point, respectively. The coefficient of variation was less than20% and the accuracy was between 80% and 120%.
Statistical comparisons of the vehicle and MRK-560 treatment data were made by unpaired t-tests. The level of significance was set at P < 0.05. All analyses were performed using GraphPad Prism (GraphPad Prism Software Inc., San Diego, CA) and results were reported as mean ± SEM.

O=S(=O)(NC1CCC(c2cc(F)ccc2F)(S(=O)(=O)c2ccc(Cl)cc2)CC1)C(F)(F)F (stereo not drawn) [MRK-560, N-[cis-4-[(4-chlorophenyl)-sulfonyl]-4-(2,5-difluorophenyl)cyclohexyl]-1,1,1-trifluoromethanesulfonamide]
Brain:plasma ratio ([1]; estimated total brain:plasma ratio, constant over 0.01-15 μmol/L): 0.31
Kp ([1]; female, C57BL/6, Tg2576, Tg2576 wild-type littermates, mouse, brain, estimated total brain:plasma ratio, constant over 0.01-15 μmol/L): 0.3
clearance ([1]; female, C57BL/6, Tg2576, Tg2576 wild-type littermates, mouse, plasma, two-compartmental model): 2 mL/min/kg
differences in pharmacokinetics among C57BL/6, Tg2576 and Tg2576 wild-type littermates ([1]; mouse, in vivo): No differences
Q ([1]; two-compartmental model): 127 mL/min/kg
V2 ([1]; two-compartmental model): 0.28 L/kg
V3 ([1]; two-compartmental model): 2.9 L/kg
KA (oral) ([1]; two-compartmental model, absorption rate constant, oral): 0.41 h⁻¹
KA (s.c.) ([1]; two-compartmental model, absorption rate constant, s.c.): 0.81 h⁻¹
plasma exposure with vehicles 2 and 3 compared to vehicle 1 ([1]; vehicles 2, 3 = HPβCD/Meglumine, vehicle 1 = 1% MCC/NaCMC+0.6% lipoid S100): fourfold higher
Effect on insoluble Aβ40 (insoluble Aβ40; study 8, Tg2576, 24 weeks at start, 0.5 μmol/kg p.o., 30 days, 3 h since last dosing): −8%
Effect on insoluble Aβ40 (insoluble Aβ40; study 8, Tg2576, 24 weeks at start, 6 μmol/kg p.o., 30 days, 3 h since last dosing, P < 0.05): −57 ^* %
Effect on insoluble Aβ40 (insoluble Aβ40; study 9, Tg2576, 24 weeks at start, 0.5 μmol/kg p.o., 94 days, 3 h since last dosing): 3%
Effect on insoluble Aβ40 (insoluble Aβ40; study 9, Tg2576, 24 weeks at start, 6 μmol/kg p.o., 94 days, 3 h since last dosing): 32%
Effect on insoluble Aβ40 (insoluble Aβ40; study 10, Tg2576, 24 weeks at start, 1 μmol/kg p.o., 29 days, 3 h since last dosing, P < 0.05): −40 ^* %
Effect on insoluble Aβ40 (insoluble Aβ40; study 10, Tg2576, 24 weeks at start, 3 μmol/kg p.o., 29 days, 3 h since last dosing, P < 0.05): −42 ^* %
Effect on insoluble Aβ40 (insoluble Aβ40; study 10, Tg2576, 24 weeks at start, 6 μmol/kg p.o., 29 days, 3 h since last dosing, P < 0.05): −69 ^* %
Effect on insoluble Aβ40 (insoluble Aβ40; study 11, Tg2576, 24 weeks at start, 6 μmol/kg p.o., 30 days, 3 h since last dosing, P < 0.05): −31 ^* %
Effect on insoluble Aβ40 (insoluble Aβ40; study 15, Tg2576, 36 weeks at start, 6 μmol/kg p.o., vehicle 3, 8 days, 3 h since last dosing): 2%
Effect on insoluble Aβ40 (insoluble Aβ40; study 17, Tg2576, 68 weeks at start, 6 μmol/kg p.o., 4 days, 3 h since last dosing): −7.6%
Effect on insoluble Aβ40 (insoluble Aβ40; study 20, Tg2576, 32 weeks at start, 30 μmol/kg p.o., 21 days, 4.5 h since last dosing): −70%
Effect on insoluble Aβ40 (insoluble Aβ40; study 21, Tg2576, 36 weeks at start, 6 μmol/kg p.o., vehicle 3, 8 days, 3 h since last dosing): −30%
Effect on insoluble Aβ40 (insoluble Aβ40; study 22, Tg2576, 24–28 weeks at start, 30 μmol/kg p.o., 45 days, 4.5 h since last dosing, P < 0.05): −57 ^* %
Effect on insoluble Aβ40 (insoluble Aβ40; study 23, Tg2576, 37–40 weeks at start, 30 μmol/kg p.o., 28 days, 4.5 h since last dosing, P < 0.05): −67 ^* %
